Results as given in patent US20240353338A1 (priority 2023, published 2024).

Experiments:
streptavidin = streptavidin (Streptomyces avidinii, UniProt P22629); format: binding
SARS-CoV-2 M^pro = SARS-CoV-2 M^pro (Severe acute respiratory syndrome coronavirus 2, UniProt P0DTD1); assay: TRIP screening of M^pro inhibitor binding and binding strength/affinity; details: 1 μM vs 5 μM M^pro mixes
transthyretin (TTR) = molecular target: T1, transthyretin (TTR) (Homo sapiens, UniProt P02766); format: binding
T1 construct: purchased Sigma Aldrich P1742

Sequence of streptavidin (P22629 37-163): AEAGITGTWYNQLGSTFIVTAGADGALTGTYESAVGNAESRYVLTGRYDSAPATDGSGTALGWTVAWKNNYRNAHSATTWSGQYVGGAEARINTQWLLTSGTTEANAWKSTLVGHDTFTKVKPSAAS

For `O=C(O)CCCC[C@@H]1SC[C@@H]2NC(=O)N[C@@H]21` [biotin], the “binding of biotin to streptavidin (Trp N-H band shift 877 to 870 cm^-1)” value (streptavidin) was “strong hydrogen bonding occurred”.
In the case of `Nc1nnc(Sc2ncc([N+](=O)[O-])s2)s1` [Halicin], the “affinity for monomer M^pro versus dimer / dimer-monomer M^pro mix” value (SARS-CoV-2 M^pro) is reported as “higher affinity for binding monomeric M^pro”.
`O=[N+]([O-])c1ccc(O)c([N+](=O)[O-])c1` [DNP, 2,4 dinitrophenol] was tested, and the “binding between DNP and TTR over time (PC2 of 1230-1350 cm^-1 region)” value (transthyretin (TTR)) was “enhanced over time”.
